For orientation: IC50 means the midpoint of a concentration-inhibition curve. Read a low IC50 as greater potency in that assay.

This is an account of results in patent US9242996B2 (Novartis AG, priority 2013, dated 2016).

Molecules are shown by their SMILES.

Chain of activated ERK2 (P28482 whole entry): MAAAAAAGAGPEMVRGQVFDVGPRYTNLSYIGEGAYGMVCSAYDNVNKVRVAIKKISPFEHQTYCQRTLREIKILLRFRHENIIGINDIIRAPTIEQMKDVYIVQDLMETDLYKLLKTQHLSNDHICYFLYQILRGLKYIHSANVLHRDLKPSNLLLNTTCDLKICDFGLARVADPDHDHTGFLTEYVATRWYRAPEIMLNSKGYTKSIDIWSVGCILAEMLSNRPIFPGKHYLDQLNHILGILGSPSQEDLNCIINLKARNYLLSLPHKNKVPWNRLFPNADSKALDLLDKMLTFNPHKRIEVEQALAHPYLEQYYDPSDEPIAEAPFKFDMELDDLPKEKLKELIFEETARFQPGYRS

For this test, the target named is activated ERK2 (Homo sapiens (Human), UniProt P28482). Briefly: Activated ERK2 kinase assay, ERK2 New conditions (AlphaScreen, ERKtide phosphorylation). In kind it is biochemical. The note with it: 0.25 nM ERK2, 200 nM ERKtide peptide, 35 μM ATP, 30 min preincubation. Put shortly:
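0.25 nM ERK2 preincubated 30 min with compound, then reacted 2–3 h at ambient temperature with 200 nM ERKtide and 35 µM ATP (final) in HEPES pH 7.5 buffer. EDTA stop; phospho-peptide detected by AlphaScreen after overnight incubation; IC50 from four-parameter fit.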
(Bead proximity is the source of the signal in Alpha formats.)
For `Nc1ncc(-c2ccnnc2)nc1-c1ccc(C(=O)N[C@H](CO)c2ccccc2)c(F)c1` [Example 144, (S)-4-(3-amino-6-(pyridazin-4-yl)pyrazin-2-yl)-2-fluoro-N-(2-hydroxy-1-phenylethyl)benzamide], the IC50 is 1.18 nM. This counts as single-digit nanomolar. With `Cn1cc(-c2cnc(N)c(-c3ccc(C(=O)N[C@H](CO)c4ccccc4)cc3)n2)cn1` [Example 146, (S)-4-(3-amino-6-(1-methyl-1H-pyrazol-4-yl)pyrazin-2-yl)-N-(2-hydroxy-1-phenylethyl)benzamide] the figure was 3.39 nM; with `Cn1cc(-c2cnc(N)c(-c3ccc(C(=O)NCc4cccc(S(C)(=O)=O)c4)c(F)c3)n2)cn1` [Example 147, 4-(3-amino-6-(1-methyl-1H-pyrazol-4-yl)pyrazin-2-yl)-2-fluoro-N-(3-(methylsulfonyl)benzyl)benzamide], 45.4 nM. As to `Cn1cc(-c2cnc(N)c(-c3ccc(C(=O)N[C@H](CO)c4ccccc4)c(F)c3)n2)cn1` [Example 148, (S)-4-(3-amino-6-(1-methyl-1H-pyrazol-4-yl)pyrazin-2-yl)-2-fluoro-N-(2-hydroxy-1-phenylethyl)benzamide], half-maximal inhibition (IC50) required 1.9 nM.

Regarding `Cc1cc(-c2cc(-c3cnnn3C)cnc2N)ccc1C(=O)N[C@H](CO)c1cccc(Cl)c1` [Example 149, (S)-4-(2-amino-5-(1-methyl-1H-1,2,3-triazol-5-yl)pyridin-3-yl)-N-(1-(3-chlorophenyl)-2-hydroxyethyl)-2-methylbenzamide], the IC50 is 0.149 nM. With `Cc1nn(C)cc1-c1cnc(N)c(-c2ccc(C(=O)N[C@H](CN)c3ccccc3)c(F)c2)c1` [Example 153, (S)-N-(2-amino-1-phenylethyl)-4-(2-amino-5-(1,3-dimethyl-1H-pyrazol-4-yl)pyridin-3-yl)-2-fluorobenzamide] the figure was 0.38 nM.

With `Cc1nn(C)c(C)c1-c1cnc(N)c(-c2ccc(C(=O)N[C@H](CO)c3cccc(Cl)c3)c(F)c2)c1` [Example 154, (S)-4-(2-amino 5-(1,3,5-trimethyl-1H-pyrazol-4-yl)pyridin-3-yl)-N-(1-(3-chlorophenyl)-2-hydroxyethyl)-2-fluorobenzamide], 0.288 nM corresponded to half-maximal inhibition (IC50). With `Cn1cc(-c2cnc(N)c(-c3ccc(C(=O)NC4CC4c4ccccc4)c(F)c3)n2)cn1` (stereo not shown) [Example 155, 4-(3-amino-6-(1-methyl-1H-pyrazol-4-yl)pyrazin-2-yl)-2-fluoro-N-(2-phenylcyclopropyl)benzamide] the figure was 1.89 nM; with `Cc1noc(C)c1-c1cnc(N)c(-c2ccc(C(=O)N[C@H](CO)c3ccccc3)c(F)c2)n1` [Example 156, (S)-4-(3-amino-6-(3,5-dimethylisoxazol-4-yl)pyrazin-2-yl)-2-fluoro-N-(2-hydroxy-1-phenylethyl)benzamide], 3.32 nM. `Cc1oncc1-c1cnc(N)c(-c2ccc(C(=O)N[C@H](CO)c3ccccc3)c(F)c2)n1` [Example 157, (S)-4-(3-amino-6-(5-methylisoxazol-4-yl)pyrazin-2-yl)-2-fluoro-N-(2-hydroxy-1-phenylethyl)benzamide] registered an IC50 of 0.416 nM. As to `Cc1oncc1-c1cnc(N)c(-c2ccc(C(=O)N[C@H](CO)c3ccccc3)c(F)c2)c1` [Example 158, (S)-4-(2-amino-5-(5-methylisoxazol-4-yl)pyridin-3-yl)-2-fluoro-N-(2-hydroxy-1-phenylethyl)benzamide], half-maximal inhibition (IC50) was put at 0.634 nM.

For the molecule `Cn1cc(-c2cnc(N)c(-c3ccc(C(=O)N[C@H](CO)c4cccc(F)c4)c(F)c3)c2)c(C#N)n1` [Example 159, (S)-4-(2-amino-5-(3-cyano-1-methyl-1H-pyrazol-4-yl)pyridin-3-yl)-2-fluoro-N-(1-(3-fluorophenyl)-2-hydroxyethyl)benzamide], half-maximal inhibition (IC50) was put at 3.14 nM. The value for `Cn1cc(-c2cnc(N)c(-c3ccc(C(=O)N[C@H](CO)c4cccc(Cl)c4)c(F)c3)c2)c(C#N)n1` [Example 160, (S)-4-(2-amino 5-(3-cyano-1-methyl-1H-pyrazol-4-yl)pyridin-3-yl)-N-(1-(3-chlorophenyl)-2-hydroxyethyl)-2-fluorobenzamide] was 0.653 nM. Take `Cc1ncc(-c2cnc(N)c(-c3ccc(C(=O)N[C@H](CO)c4ccccc4)c(F)c3)c2)n1C` [Example 161, (S)-4-(2-amino-5-(1,2-dimethyl-1H-imidazol-5-yl)pyridin-3-yl)-2-fluoro-N-(2-hydroxy-1-phenylethyl)benzamide]: the midpoint of inhibition, the IC50, lay at 5.78 nM. The value for `Cc1ncc(-c2cnc(N)c(-c3ccc(C(=O)N[C@H](CO)c4cccc(F)c4)c(F)c3)c2)n1C` [Example 163, (S)-4-(2-amino-5-(1,2-dimethyl-1H-imidazol-5-yl)pyridin-3-yl)-2-fluoro-N-(1-(3-fluorophenyl)-2-hydroxyethyl)benzamide] was 5.14 nM; that for `Nc1ncc(-c2cnoc2)cc1-c1ccc(C(=O)N[C@H](CO)c2ccccc2)c(F)c1` [Example 164, (S)-4-(2-amino-5-(isoxazol-4-yl)pyridin-3-yl)-2-fluoro-N-(2-hydroxy-1-phenylethyl)benzamide] was 1.4 nM.

`Cc1oncc1-c1cnc(N)c(-c2ccc(C(=O)N[C@H](CO)c3cccc(F)c3)c(F)c2)c1` [Example 165, (S)-4-(2-amino-5-(5-methylisoxazol-4-yl)pyridin-3-yl)-2-fluoro-N-(1-(3-fluorophenyl)-2-hydroxyethyl)benzamide]: the midpoint of inhibition, the IC50, lay at 390 nM. As for `Cn1cnnc1-c1cnc(N)c(-c2ccc(C(=O)N[C@H](CO)c3cccc(Cl)c3)c(F)c2)c1` [Example 167, (S)-4-(2-amino-5-(4-methyl-4H-1,2,4-triazol-3-yl)pyridin-3-yl)-N-(1-(3-chlorophenyl)-2-hydroxyethyl)-2-fluorobenzamide], the midpoint of inhibition, the IC50, lay at 0.998 nM. `Cn1cc(-c2cnc(N)c(-c3ccc(C(=O)N[C@H](CO)c4ccccc4)c(F)c3)c2)c(C(F)(F)F)n1` [Example 168, (S)-4-(2-amino-5-(1-methyl-3-(trifluoromethyl)-1H-pyrazol-4-yl)pyridin-3-yl)-2-fluoro-N-(2-hydroxy-1-phenylethyl)benzamide] showed an IC50 of 5.13 nM.

Molecule `Cc1c(-c2cnc(N)c(-c3ccc(C(=O)N[C@H](CO)c4ccccc4)c(F)c3)c2)cnn1C` [Example 170, (S)-4-(2-amino-5-(1,5-dimethyl-1H-pyrazol-4-yl)pyridin-3-yl)-2-fluoro-N-(2-hydroxy-1-phenylethyl)benzamide] returned an IC50 of 1.58 nM.

`COCCn1cc(-c2cnc(N)c(-c3ccc(C(=O)N[C@H](CO)c4ccccc4)c(F)c3)c2)cn1` [Example 171, (S)-4-(2-amino-5-(1-(2-methoxyethyl)-1H-pyrazol-4-yl)pyridin-3-yl)-2-fluoro-N-(2-hydroxy-1-phenylethyl)benzamide]: the IC50 worked out at 1.09 nM. With `NC[C@@H](NC(=O)c1ccc(-c2nc(C3CCC(F)(F)CC3)cnc2N)cc1F)c1cccc(Cl)c1` [Example 197, (S)—N-(2-amino-1-(3-chlorophenyl)ethyl)-4-(3-amino-6-(4,4-difluorocyclohexyl)pyrazin-2-yl)-2-fluorobenzamide] the figure was 2.1 nM; with `Nc1ncc([C@H]2CC[S@+]([O-])CC2)cc1-c1ccc(C(=O)N[C@H](CO)c2cccc(Cl)c2)c(F)c1` [Example 211, 4-(2-amino-5-((1S,4r)-1-oxidotetrahydro-2H-thiopyran-4-yl)pyridin-3-yl)-N—((S)-1-(3-chlorophenyl)-2-hydroxyethyl)-2-fluorobenzamide], 5.44 nM. The molecule `Nc1ncc(C2CCSCC2)cc1-c1ccc(C(=O)N[C@H](CO)c2cccc(Cl)c2)c(F)c1` [Example 212, (S)-4-(2-amino-5-(tetrahydro-2H-thiopyran-4-yl)pyridin-3-yl)-N-(1-(3-chlorophenyl)-2-hydroxyethyl)-2-fluorobenzamide] gave an IC50 of 0.397 nM. The value for `CS(=O)(=O)N1CCCC(c2cnc(N)c(-c3ccc(C(=O)N[C@H](CO)c4ccccc4)c(F)c3)n2)C1` (stereo partly drawn) [Example 213, 4-(3-amino-6-(1-(methylsulfonyl)piperidin-3-yl)pyrazin-2-yl)-2-fluoro-N—((S)-2-hydroxy-1-phenylethyl)benzamide] was 11.9 nM; that for `COC(=O)N1CCCC(c2cnc(N)c(-c3ccc(C(=O)N[C@H](CO)c4ccccc4)c(F)c3)n2)C1` (stereo partly drawn) [Example 214, methyl 3-(5-amino-6-(3-fluoro-4-(((S)-2-hydroxy-1-phenylethyl)carbamoyl)phenyl)pyrazin-2-yl)piperidine-1-carboxylate] was 13.4 nM. In turn, `CC(=O)N1CCCC(c2cnc(N)c(-c3ccc(C(=O)N[C@H](CO)c4ccccc4)c(F)c3)n2)C1` (stereo partly drawn) [Example 215, 4-(6-(1-acetylpiperidin-3-yl)-3-aminopyrazin-2-yl)-2-fluoro-N—((S)-2-hydroxy-1-phenylethyl)benzamide] yielded an IC50 of 28.5 nM. With `COC(=O)N1CCCC(c2cnc(N)c(-c3ccc(C(=O)N[C@H](CO)c4cccc(Cl)c4)c(F)c3)n2)C1` (stereo partly drawn) [Example 216, methyl 3-(5-amino-6-(4-(((S)-1-(3-chlorophenyl)-2-hydroxyethyl)carbamoyl)-3-fluorophenyl)pyrazin-2-yl)piperidine-1-carboxylate], the IC50 was 1.81 nM.

In turn, `CCn1cc(-c2cnc(N)c(-c3ccc(C(=O)N[C@H](CO)c4ccccc4)c(F)c3)n2)cn1` [Example 217, (S)-4-(3-amino-6-(1-ethyl-1H-pyrazol-4-yl)pyrazin-2-yl)-2-fluoro-N-(2-hydroxy-1-phenylethyl) benzamide] displayed an IC50 of 1.13 nM. `Nc1ncc(C2CNC(=O)C2)cc1-c1ccc(C(=O)N[C@H](CO)c2ccccc2)c(F)c1` (stereo partly drawn) [Example 218, 4-(2-amino-5-(5-oxopyrrolidin-3-yl)pyridin-3-yl)-2-fluoro-N—((S)-2-hydroxy-1-phenylethyl)benzamide] registered an IC50 of 24.2 nM. Compared with the last molecule, the IC50 is about 21-fold higher. Consider `Nc1ncc([C@@H]2CNC(=O)C2)cc1-c1ccc(C(=O)N[C@H](CO)c2ccccc2)c(F)c1` [Example 219, 4-(2-amino-5-((R)-5-oxopyrrolidin-3-yl)pyridin-3-yl)-2-fluoro-N—((S)-2-hydroxy-1-phenylethyl)benzamide], for which 32.7 nM corresponded to half-maximal inhibition (IC50).
